Results: patent publication US9073821B2, “Hydroxamic acid derivative” (priority 2010, dated 2015)
Where two headings read alike, the source gives them in different places.

Molecular target: Pseudomonas aeruginosa LpxC enzyme (Pseudomonas aeruginosa (strain ATCC 15692 / DSM 22644 / CIP 104116 / JCM 14847 / LMG 12228 / 1C / PRS 101 / PAO1), UniProt P47205)
Assay: biochemical
Type: biochemical
[1] = inhibitory activity on Pseudomonas aeruginosa LpxC enzyme, class symbols A/B/C, read-out: Enzyme inhibitory activity
[2] = class symbols A/B/C by IC50, Table 3, read-out: Enzyme inhibitory activity (inhibitory activity on Pseudomonas aeruginosa LpxC enzyme)

| IC50 [1] | IC50 [2] | Compound |
| --- | --- | --- |
| 10 to 100 nM | – | CNC(=O)C(C(=O)NO)N(C)C(=O)c1ccc(-c2ccc(CN(C)C(C)=O)cc2)cc1 (stereo not shown) [Compound 239, 2-{[(4′-{[acetyl(methyl)amino]methyl}biphenyl-4-yl)carbonyl](methyl)amino}-N-hydroxy-N′-methylpropanediamide] |
| > 100 nM | – | CNC(=O)C(C(=O)NO)N(C)C(=O)c1ccc(-c2ccc(CN(C)C)cc2)cc1 (stereo not shown) [Compound 194, 2-[({4′-[(dimethylamino)methyl]biphenyl-4-yl}carbonyl)(methyl)amino]-N-hydroxy-N′-methylpropanediamide] |
| 10 to 100 nM | – | CNC(=O)C(C(=O)NO)N(C)C(=O)c1ccc(-c2ccc3nonc3c2)cc1 (stereo not shown) [Compound 189, 2-{[4-(2,1,3-benzoxadiazol-5-yl)benzoyl](methyl)amino}-N-hydroxy-N′-methylpropanediamide] |
| > 100 nM | – | CNC(=O)C(C(=O)NO)N(C)C(=O)c1ccc(-c2cncc(C(F)(F)F)c2)cc1 (stereo not shown) [Compound 446, N-hydroxy-N′-methyl-2-[methyl({4-[5-(trifluoromethyl)pyridin-3-yl]phenyl}carbonyl)amino]propanediamide] |
| < 10 nM | – | CNC(=O)C(C(=O)NO)N(C)C(=O)c1ccc(-c2ccc(SCCCN3CCOCC3)cc2)cc1 (stereo not shown) [Compound 286, N-hydroxy-N′-methyl-2-{methyl[(4′-{[3-(morpholin-4-yl)propyl]sulfanyl}biphenyl-4-yl)carbonyl]amino}propanediamide] |
| 10 to 100 nM | – | CNC(=O)C(C(=O)NO)N(C)C(=O)c1ccc(-c2ccc(OCCCN(C)C)cc2)cc1 (stereo not shown) [Compound 274, 2-[({4′-[3-(dimethylamino)propoxy]biphenyl-4-yl}carbonyl)(methyl)amino]-N-hydroxy-N′-methylpropanediamide] |
| – | < 10 nM | CNC(=O)C(C(=O)NO)N(C)C(=O)c1ccc(C#Cc2ccc(CN3CC(=CCOC)C3)cc2)cc1 (stereo not shown) [Compound 530, N-hydroxy-2-[({4-[(4-{[3-(2-methoxyethylidene)azetidin-1-yl]methyl}phenyl)ethynyl]phenyl}carbonyl)(methyl)amino]-N′-methylpropanediamide] |
| – | < 10 nM | CCOC1CN(Cc2ccc(C#Cc3ccc(C(=O)N(C)C(C(=O)NC)C(=O)NO)cc3)c(F)c2)C1 (stereo not shown) [Compound 564, 2-[{[4-({4-[(3-ethoxyazetidin-1-yl)methyl]-2-fluorophenyl}ethynyl)phenyl]carbonyl}(methyl)amino]-N-hydroxy-N′-methylpropanediamide] |
| – | > 100 nM | CNC(=O)C(C(=O)NO)N(C)C(=O)c1ccc(C#CC2CC2)cc1 (stereo not shown) [Compound 503, 2-[{[4-(cyclopropylethynyl)phenyl]carbonyl}(methyl)amino]-N-hydroxy-N′-methylpropanediamide] |
| > 100 nM | – | CN(C(=O)c1ccc(-c2ccccc2)cc1)C(C(=O)NO)C(=O)NCc1ccccc1 (stereo not shown) [Compound 62, N-benzyl-2-[(biphenyl-4-ylcarbonyl)(methyl)amino]-N′-hydroxypropanediamide] |
| < 10 nM | – | CNC(=O)C(C(=O)NO)N(C)C(=O)c1ccc(-c2ccc(OCc3ccc(CN4CCOCC4)cc3)cc2)cc1 (stereo not shown) [Compound 91, N-hydroxy-N′-methyl-2-{methyl[(4′-{[4-(morpholin-4-ylmethyl)benzyl]oxy}biphenyl-4-yl)carbonyl]amino}propanediamide] |
| – | < 10 nM | CNC(=O)[C@@](C)(C(=O)NO)N(C)C(=O)c1ccc(C#C/C=C/C2CC2COC)cc1 (stereo partly drawn) [Compound 596, (2S)-N-hydroxy-2-[(4-{(3E)-4-[2-(methoxymethyl)cyclopropyl]but-3-en-1-yn-1-yl}benzoyl)(methyl)amino]-N′,2-dimethylpropanediamide] |
| < 10 nM | – | CNC(=O)C(C(=O)NO)N(C)C(=O)c1ccc(C#Cc2ccc(CNCc3ncco3)cc2)cc1 (stereo not shown) [Compound 485, N-hydroxy-N′-methyl-2-[methyl({4-[(4-{[(1,3-oxazol-2-ylmethyl)amino]methyl}phenyl)ethynyl]phenyl}carbonyl)amino]propanediamide] |
| 10 to 100 nM | – | O=C(NC(C(=O)NO)C(=O)NCCO)c1ccc(-c2ccc(OCCO)cc2)cc1 (stereo not shown) [Compound 122, N-hydroxy-2-({[4′-(2-hydroxyethoxy)biphenyl-4-yl]carbonyl}amino)-N′-(2-hydroxyethyl)propanediamide] |
| > 100 nM | – | CNC(=O)C(C(=O)NO)N(C)C(=O)c1ccc(-c2ccc(CNCC(C)(C)C)cc2)cc1 (stereo not shown) [Compound 74, 2-{[(4′-{[(2,2-dimethylpropyl)amino]methyl}biphenyl-4-yl)carbonyl](methyl)amino}-N-hydroxy-N′-methylpropanediamide] |
| – | < 10 nM | CNC(=O)C(C(=O)NO)N(C)C(=O)c1ccc(C#Cc2ccc(CN(C)Cc3ccccc3)cc2)cc1 (stereo not shown) [Compound 495, 2-[({4-[(4-{[benzyl(methyl)amino]methyl}phenyl)ethynyl]phenyl}carbonyl)(methyl)amino]-N-hydroxy-N′-methylpropanediamide] |
| 10 to 100 nM | – | CC(C)(C)CNC(=O)C(NC(=O)c1ccc(-c2ccc(OCCO)cc2)cc1)C(=O)NO (stereo not shown) [Compound 136, N-(2,2-dimethylpropyl)-N′-hydroxy-2-({[4′-(2-hydroxyethoxy)biphenyl-4-yl]carbonyl}amino)propanediamide] |

| IC50 [1] | IC50 [2] | Compound |
| --- | --- | --- |
| < 10 nM | – | CNC(=O)C(C(=O)NO)N(C)C(=O)c1ccc(-c2ccc(OC(F)(F)C(F)F)cc2)cc1 (stereo not shown) [Compound 83, N-hydroxy-N′-methyl-2-(methyl {[4′-(1,1,2,2-tetrafluoroethoxy)biphenyl-4-yl]carbonyl}amino)propanediamide] |
| 10 to 100 nM | – | CNC(=O)C(C(=O)NO)N(C)C(=O)c1ccc(C#Cc2ccc(C(C)N)cc2)cc1 (stereo not shown) [Compound 358, 2-{[(4-{[4-(1-aminoethyl)phenyl]ethynyl}phenyl)carbonyl](methyl)amino}-N-hydroxy-N′-methylpropanediamide] |
| < 10 nM | – | O=C(NC(C(=O)NO)C(=O)NCC1CN(Cc2ccccc2)CCO1)c1ccc(-c2ccc(OCCO)cc2)cc1 (stereo not shown) [Compound 160, N-[(4-benzylmorpholin-2-yl)methyl]-N′-hydroxy-2-({[4′-(2-hydroxyethoxy)biphenyl-4-yl]carbonyl}amino)propanediamide] |
| 10 to 100 nM | – | CNC(=O)C(C(=O)NO)N(C)C(=O)c1ccc(-c2ccc(NCCCCO)cc2)cc1 (stereo not shown) [Compound 20, N-hydroxy-2-[({4′-[(4-hydroxybutyl)amino]biphenyl-4-yl}carbonyl)(methyl)amino]-N′-methylpropanediamide] |
| 10 to 100 nM | – | CNC(=O)C(C(=O)NO)N(C)C(=O)c1ccc(-c2ccc(N3CCOC3=O)cc2)cc1 (stereo not shown) [Compound 247, N-hydroxy-N′-methyl-2-(methyl {[4′-(2-oxo-1,3-oxazolidin-3-yl)biphenyl-4-yl]carbonyl}amino)propanediamide] |
| < 10 nM | – | Cn1cnc(CNC(=O)C(NC(=O)c2ccc(-c3ccc(OCCO)cc3)cc2)C(=O)NO)c1 (stereo not shown) [Compound 158, N-hydroxy-2-({[4′-(2-hydroxyethoxy)biphenyl-4-yl]carbonyl}amino)-N′-[(1-methyl-1H-imidazol-4-yl)methyl]propanediamide] |
| 10 to 100 nM | – | CNC(=O)C(C(=O)NO)N(C)C(=O)c1ccc(-c2ccc(OCc3ccc(-c4nnn[nH]4)cc3)cc2)cc1 (stereo not shown) [Compound 93, N-hydroxy-N′-methyl-2-{methyl[(4′-{[4-(1H-tetrazol-5-yl)benzyl]oxy}biphenyl-4-yl)carbonyl]amino}propanediamide] |
| > 100 nM | – | CNC(=O)C(C(=O)NO)N(C)C(=O)c1ccc(-c2ccccc2)s1 (stereo not shown) [Compound 442, N-hydroxy-N′-methyl-2-{methyl[(5-phenylthiophen-2-yl)carbonyl]amino}propanediamide] |
| < 10 nM | – | CNC(=O)C(C(=O)NO)N(C)C(=O)c1ccc(-c2ccc(NCC3CC3CNc3ccccc3)cc2)cc1 (stereo not shown) [Compound 103, N-hydroxy-N′-methyl-2-[methyl({4′-[({2-[(phenylamino)methyl]cyclopropyl}methyl)amino]biphenyl-4-yl}carbonyl)amino]propanediamide] |
| > 100 nM | – | CNC(=O)C(C(=O)NO)N(C)C(=O)c1ccc(-c2ccoc2)cc1 (stereo not shown) [Compound 105, 2-{[4-(furan-3-yl)benzoyl](methyl)amino}-N-hydroxy-N′-methylpropanediamide] |
| < 10 nM | – | CNC(=O)C(C(=O)NO)N(C)C(=O)c1ccc(-c2ccc(OCc3ccccc3)nc2)cc1 (stereo not shown) [Compound 468, 2-[({4-[6-(benzyloxy)pyridin-3-yl]phenyl}carbonyl)(methyl)amino]-N-hydroxy-N′-methylpropanediamide] |
| 10 to 100 nM | – | CNC(=O)C(C(=O)NO)N(C)C(=O)c1ccc(C#Cc2ccc(N3CCN(C)CC3)cc2)cc1 (stereo not shown) [Compound 473, N-hydroxy-N′-methyl-2-{methyl[(4-{[4-(4-methylpiperazin-1-yl)phenyl]ethynyl}phenyl)carbonyl]amino}propanediamide] |
| < 10 nM | – | CNC(=O)C(C(=O)NO)N(C)C(=O)c1ccc(-c2ccc(OCCCN(C)Cc3ccccc3)cc2)cc1 (stereo not shown) [Compound 70, 2-{[(4′-{3-[benzyl(methyl)amino]propoxy}biphenyl-4-yl)carbonyl](methyl)amino}-N-hydroxy-N′-methylpropanediamide] |
| 10 to 100 nM | – | CNC(=O)C(C(=O)NO)N(CCOC)C(=O)c1ccc(-c2ccccc2)cc1 (stereo not shown) [Compound 166, 2-[(biphenyl-4-ylcarbonyl)(2-methoxyethyl)amino]-N-hydroxy-N′-methylpropanediamide] |
| – | < 10 nM | CCOC1CN(Cc2ccc(C#Cc3ccc(C(=O)N(C)C(C(=O)NC)C(=O)NO)cc3F)cc2)C1 (stereo not shown) [Compound 581, 2-[{[4-({4-[(3-ethoxyazetidin-1-yl)methyl]phenyl}ethynyl)-3-fluorophenyl]carbonyl}(methyl)amino]-N-hydroxy-N′-methylpropanediamide] |
| < 10 nM | – | CNC(=O)C(C(=O)NO)N(C)C(=O)c1ccc(-c2ccc3c(c2)OCCO3)cc1 (stereo not shown) [Compound 81, 2-{[4-(2,3-dihydro-1,4-benzodioxin-6-yl)benzoyl](methyl)amino}-N-hydroxy-N′-methylpropanediamide] |
| < 10 nM | – | O=C(NC(C(=O)NO)C(=O)NCc1ccccc1)c1ccc(-c2ccc(OCCO)cc2)cc1 (stereo not shown) [Compound 120, N-benzyl-N′-hydroxy-2-({[4′-(2-hydroxyethoxy)biphenyl-4-yl]carbonyl}amino)propanediamide] |
